# Several values for one entry are separate records, joined by “and”; a condition that tells them apart may be missing. Equal values may be shown once.
# Legend:
# [1] = system: cells transfected with GFP:SB; experiment: GFP expression in cells transfected with GFP:SB (SB100X DNA or RNA) under MTX; assay type: cell-based; details: cells transfected with 5 ug of GFP:SB; 50 uM and 100 uM MTX tested
# Protocol: Cells were electroporated with SB100X (DNA or RNA) or transposons carrying genes for GFP, CARS, or GFP/mCherry/BFP. FIG. 20A relates to lymphocytes; FIG. 20B relates to single cells; FIG. 20C relates to live cells; FIG. 20D relates to GFP; FIG. 20E relates to a time-line.
# As shown in the figure are several scattergrams of the cells that are transfected with GFP gene carrying transposons. Several samples of cells are transfected with DNA comprising a gene for GFP expression (2.5 ug and 5 ug), mcGFP only, and RNA (1 ug and 3 ug).
# FIGS. 24A-24B relate to expression of GFP in cells transfected with GFP:SB. […] FIG. 24B relates to the experiment was performed using RNA, however, DNA has a higher efficiency for leading to expression of the protein.
# H9 cells [2] = experiment: Multiplexed gene integration of three fluorescent protein transposons with MTX step selection, flow cytometry; assay type: cell-based, human; details: for cells expressing triple transgenes: 200 nM MTX 1 week
# Protocol: (§1) H9 cells were cultured in DMEM with 10% FBS. The optimized nucleofection protocol for H9 cells (Lonza) was followed (program X-001, Nucleofector Kit V). Per nucleofection, 1×10^6 cells were used with varying amounts of MC DNA. Cells were grown for a week after nucleofection to achieve stable transfection.
# (§2) Live cells were selected based on propidium iodide exclusion by adding propidium iodide in the flow cytometry buffer to 2 μg/ml. Flow cytometry analysis was carried out on a MACSQuant Analyzer (Miltenyi Biotec) and LSRII (BD Biosciences). Collected data was analyzed with FlowJo software. Appropriate negative controls (untransfected H9 cells with and without propidium iodide staining, as well as cells transfected with single genes for GFP, BFP, and mCherry) were used for compensation and gating. A Becton Dickinson FACSAria II was used for cell sorting. Part of flow cytometry work was conducted at the UW Immunology Flow Cytometry Facility.
# H9 cells were nucleofected with three minicircles containing three different reporter genes (maxGFP, mCherry, and BFP) in transposon cassettes and the SB100X transposase minicircle. Stably-transduced cells were then selected for 7 days with 200 nM and cell population assessed by flow cytometry analysis. […] Initial transfection efficiency assessed 24 hours after nucleofection, was 68% (FIG. 6A). The stably transduced population was 37±1.4%, reflecting 54% integration efficiency. Of this population, 19±0.6% expressed two or three different fluorescent proteins. […] Cell viability rebounded to ˜70% during the second round of selection due to further selection for overexpression of the DHFRdm gene.
# H9 cells [3] = experiment: Transposon copy number by qPCR in MTX-selected H9 cells; assay type: cell-based, human
# Protocol: Genomic DNA was extracted with Puregene Kit A according to the manufacturer's instructions (Qiagen), and qPCR was performed using a 7300 Real-Time PCR System (Applied Biosystems) using Universal SYBR Green Supermix (BioRad). Primers for qPCR were designed using Primer3 software: […]
# MaxGFP primers are specific for the maxGFP gene in the transposon. Standard curves were generated using genomic DNA of a H9 clone with a single insertion of transposon (“gold standard”) obtained by limiting dilution method. Copy number was calculated using the […] (Schmittgen, T. D. and Livak, K. J. (2008), incorporated in its entirety herein). Characterization of SBTS Integration Distribution.
# Plates were incubated for 2-3 weeks, after which clonal populations were moved to larger plates and expanded. GFP expression was confirmed by flow cytometry. Relative RT-qPCR analysis was performed using DNA of 60 individual clones in order to determine transposon copy number.
# First, a “gold standard” clone with a single copy of integrated transposon was generated by limiting dilution method. […] A trend of increasing average transposon copy number with increasing selection pressure was observed. […] Statistical difference was assessed by Student's t-test.
# Sixty clones were generated by limiting dilution method, GFP expression confirmed by flow cytometry, genomic DNA isolated, and the number of GFP genes per haploid genome analyzed by RT-PCR. Most clones (˜65%) contained multiple copies of GFP.
# H9 cells [4] = experiment: MTX selection and transgene persistence in H9 cells stably transfected with T3/GFP-T2A-DHFRdm transposon, flow cytometry; assay type: cell-based, human
# Protocol: as §1, §2
# [5] = 60 clones from population selected with 200 nM MTX
smiles,measurement,setting,value
"CN(Cc1cnc2nc(N)nc(N)c2n1)c1ccc(C(=O)N[C@@H](CCC(=O)O)C(=O)O)cc1 [MTX, methotrexate]",MTX concentration at which cells express GFP optimally,[1],50 µM
same,cells expressing triple transgenes,H9 cells [2]; then 500 nM MTX additional week,38.5±1.0%
same,cells expressing triple transgenes,H9 cells [2]; then 1000 nM MTX additional week,53.1±0.3%
same,cell viability,H9 cells [2]; during the second round of selection,~70%
same,cells expressing three transgene products,"H9 cells [2]; two-step selection, two successive MTX selection rounds",50%
same,average number of integration events in clones,H9 cells [3]; [5],1.8 and 1.78±0.69
same,clones containing multiple copies of GFP,H9 cells [3]; [5],~65%
same,average integration events (transposon copy number per human haploid genome),"H9 cells [3]; cell population selected with 200 nM MTX, RT-qPCR",2.1±0.45
same,decrease in mean GFP expression by 4 weeks post-MTX withdrawal,H9 cells [4]; 50 nM MTX selection,28%
same,decrease in mean GFP expression by 4 weeks post-MTX withdrawal,H9 cells [4]; 100 nM MTX selection,27%
same,GFP+ population four weeks post-MTX withdrawal,H9 cells [4]; 200 nM MTX for 2 weeks,97%
same,decrease in mean GFP expression by 4 weeks post-MTX withdrawal,H9 cells [4]; 200 nM MTX selection,21%
same,GFP+ population four weeks post-MTX withdrawal,"H9 cells [4]; all populations (50, 100, 200 nM MTX for 2 weeks)",> 90%
same,GFP+ cells,"H9 cells [4]; by 7 days post-selection, all conditions (50 to 200 nM MTX)",> 94%
